Experimental data reported in publication PMC11310081, “Deep-learning-enabled antibiotic discovery through molecular de-extinction” (Nature Biomedical Engineering, 2024).
Values after ≈ are worked out from the molar mass of the structure shown. Peptide text beside a SMILES is read from it.

What was measured:
HEK293T cells = conditions: 24 h
Method in brief: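 5,000 cells/well seeded a day ahead in DMEM with 10% FBS, then treated with peptides; viability by MTT (0.5 mg/ml, 4 h, 37 °C), formazan in acidic isopropanol read at 570 nm. Concentration causing 50% lysis from non-linear regression; three biological replicates, two technical each.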

[1] = system: 11 clinically relevant bacterial pathogens; assay type: cell-based; conditions: for Active or Inactive: Supplementary Dataset 2, against the 11 pathogens tested
Method in brief: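 Single colonies were grown overnight (16 h) at 37 °C in LB, diluted 1:100, regrown to OD600 = 0.3–0.5, then exposed to aqueous peptide solutions from 1 to 64 μmol l^−1 by broth microdilution, with plates read at 600 nm.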

A. baumannii ATCC 19606 [2] = assay type: cell-based, Acinetobacter baumannii; conditions: ATCC 19606, 20 h
Text: (§1) The following Gram-negative bacteria were used in our study: A. baumannii ATCC 19606, E. coli ATCC 11775, E. coli AIC221 (E. coli MG1655 phnE_2::FRT), E. coli AIC222 (E. coli MG1655 pmrA53 phnE_2::FRT (colistin resistant)), K. pneumoniae ATCC 13883, P. aeruginosa PAO1 and P. aeruginosa PA14. The following Gram-positive bacteria were also used in our study: S. aureus ATCC 12600, S. aureus ATCC BAA-1556 (methicillin-resistant strain), E. faecalis ATCC 700802 (vancomycin-resistant strain) and E. faecium ATCC 700221 (vancomycin-resistant strain). Bacteria were grown from frozen stocks and plated on Luria–Bertani (LB) or Pseudomonas isolation agar plates (P. aeruginosa strains) and incubated overnight at 37 °C. After the incubation period, a single colony was transferred to 5 ml of LB medium, and cultures were incubated overnight (16 h) at 37 °C. The following day, an inoculum was prepared by diluting the overnight cultures 1:100 in 5 ml of the respective media and incubating them at 37 °C until bacteria reached logarithmic phase (OD600 = 0.3–0.5).
(§2) The in vitro antimicrobial activity of the peptides was assessed by using the broth microdilution assay. […] Aqueous solutions of the peptides were added to the plate at concentrations ranging from 1 to 64 μmol l^−1. […] The optical density of the plates was measured at 600 nm using a spectrophotometer. All assays were done as three biological replicates.

A. baumannii ATCC 19606 [3] = assay: Cytoplasmic membrane depolarization assay (DiSC3-5); assay type: cell-based, Acinetobacter baumannii; conditions: DiSC3-5 fluorescence, peptide at its MIC, polymyxin B as positive control; three replicates
Description: The depolarization of the bacterial cytoplasmic membrane was determined by fluorescence measurements of the membrane potential-sensitive dye, DiSC3-5 (ref. [16]). Briefly, A. baumannii ATCC 19606 and P. aeruginosa PAO1 were grown at 37 °C until mid-log phase (OD600 = 0.5). The cells were then centrifuged using the same conditions described for the NPN uptake assays, washed twice with washing buffer containing 20 mmol l^−1 glucose and 5 mmol l^−1 HEPES (pH 7.2). The cells were diluted 1:10 (OD600 = 0.05) in a buffer containing 0.1 mol l^−1 KCl, 20 mmol l^−1 glucose and 5 mmol l^−1 HEPES (pH 7.2). About 100 μl of bacterial solution was then incubated for 15 min with 20 nmol l^−1 of DiSC3-5 until the fluorescence reached a plateau, that is, the dye was fully internalized into the bacterial membrane. Transmembrane potential changes were monitored by observing the difference in the fluorescence emission intensity of DiSC3-5 (λex = 622 nm, λem = 670 nm), after the addition of 100 μl of peptide aqueous solution at its MIC. All assays were performed in three biological replicates. The relative fluorescence values were calculated for the course of the experiment using non-linear fitting, and the untreated control (buffer + bacteria + fluorescent dye) served as baseline. The following equation was applied to show the percentage difference between the fluorescence of the untreated control (baseline) and the sample: Percentagedifference=100×(fluorescencesample−baseline)/baseline

[4] = system: E. faecium ATCC 700221 (vancomycin-resistant strain); assay type: cell-based, Enterococcus faecium; conditions: ATCC 700221, 20 h
Text: as §1, §2

[5] = system: S. aureus ATCC BAA-1556 (methicillin-resistant strain); assay type: cell-based, Staphylococcus aureus; conditions: ATCC BAA-1556, 20 h
Text: as §1, §2

S. aureus ATCC 12600 = assay type: cell-based, Staphylococcus aureus; conditions: ATCC 12600, 20 h
Text: as §1, §2

E. coli AIC221 = assay type: cell-based, Escherichia coli; conditions: AIC221, 20 h
Text: as §1, §2

K. pneumoniae ATCC 13883 = assay type: cell-based, Klebsiella pneumoniae; conditions: ATCC 13883, 20 h
Text: as §1, §2

P. aeruginosa PAO1 = assay type: cell-based, Pseudomonas aeruginosa; conditions: PAO1, 20 h
Text: as §1, §2

P. aeruginosa PA14 = assay type: cell-based, Pseudomonas aeruginosa; conditions: PA14, 20 h
Text: as §1, §2

[6] = system: E. faecalis ATCC 700802 (vancomycin-resistant strain); assay type: cell-based, Enterococcus faecalis; conditions: ATCC 700802, 20 h
Text: as §1
as §2, with “All assays were done as three biological replicates.” left out

Row | Compound | CC50 (HEK293T cells) [µM] | TI (therapeutic index) (HEK293T cells) | Active or Inactive [1] | Minimal inhibitory concentration, A. baumannii ATCC19606 (A. baumannii ATCC 19606 [2]) [µM] | Cytoplasmic membrane depolarization, in words (A. baumannii ATCC 19606 [3]) | Minimal inhibitory concentration, E. faecium ATCC700221-VRE [4] [µM] | Minimal inhibitory concentration, S. aureus ATCC BAA-1556-MRSA [5] [µM] | Minimal inhibitory concentration, S. aureus ATCC12600 (S. aureus ATCC 12600) [µM] | Minimal inhibitory concentration, E. coli AIC221 (E. coli AIC221) [µM] | Minimal inhibitory concentration, K. pneumoniae ATCC133883 (K. pneumoniae ATCC 13883) [µM] | MIC (lowest MIC value in the antimicrobial activity assays) ([1]; Supplementary Table 17, lowest MIC among the strains tested) [µM] | Minimal inhibitory concentration, P. aeruginosa PAO1 (P. aeruginosa PAO1) [µM] | Minimal inhibitory concentration, P. aeruginosa PA14 (P. aeruginosa PA14) [µM] | Minimal inhibitory concentration, E. faecalis ATCC700802-VRE [6] [µM]
1 | CC[C@H](C)[C@H](NC(=O)[C@H](CCCCN)NC(=O)[C@@H](N)CCCNC(=N)N)C(=O)N[C@@H](CC(C)C)C(=O)NCC(=O)N[C@@H](CC(=O)O)C(=O)N[C@@H](CC(C)C)C(=O)N[C@@H](CCCCN)C(=O)N[C@@H](Cc1ccccc1)C(=O)N[C@@H](CC(C)C)C(=O)N[C@@H](CCC(=O)O)C(=O)N[C@@H](CO)C(=O)N[C@@H](CC(C)C)C(=O)N[C@@H](CCCCN)C(=O)N[C@H](C(=O)N[C@@H](Cc1ccc(O)cc1)C(=O)O)[C@@H](C)O [Anomalopterin-1] (H-RKILGDLKFLESLKTY-OH; N-terminus and C-terminus assumed) | > 128 | > 2 | Active | 64 (≈ 123 µg/mL) | most potent depolarization effects |  |  |  |  |  |  |  |  | 
2 | CC[C@H](C)[C@H](NC(=O)[C@H](CO)NC(=O)CNC(=O)[C@H](CC(C)C)NC(=O)[C@H](CC(C)C)NC(=O)[C@H](CC(C)C)NC(=O)[C@H](CCCNC(=N)N)NC(=O)[C@H](CCCCN)NC(=O)[C@@H](NC(=O)[C@H](CO)NC(=O)[C@H](CC(N)=O)NC(=O)[C@@H](NC(=O)[C@H](CC(C)C)NC(=O)[C@@H](N)CC(C)C)[C@@H](C)CC)[C@@H](C)CC)C(=O)N[C@@H](CC(C)C)C(=O)O [Arctodutin-1] (H-LLINSIKRLLLGSIL-OH; N-terminus and C-terminus assumed) | > 128 |  | Active | 8 (≈ 13.3 µg/mL) |  | 2 (≈ 3.33 µg/mL) | 8 (≈ 13.3 µg/mL) | 8 (≈ 13.3 µg/mL) |  |  |  |  |  | 
3 | CC[C@H](C)[C@H](NC(=O)[C@H](Cc1ccc(O)cc1)NC(=O)[C@H](C)NC(=O)[C@@H](N)CCCNC(=N)N)C(=O)N[C@@H](CS)C(=O)N[C@@H](CCCNC(=N)N)C(=O)N[C@@H](CCCCN)C(=O)N[C@@H](CCCCN)C(=O)N[C@@H](Cc1ccccc1)C(=O)N[C@@H](CC(C)C)C(=O)N[C@@H](CO)C(=O)N[C@@H](CC(C)C)C(=O)N[C@@H](CCCNC(=N)N)C(=O)N[C@@H](CCCCN)C(=O)N[C@@H](C)C(=O)N[C@@H](CO)C(=O)N[C@H](C(=O)N[C@@H](CCCCN)C(=O)N[C@@H](CC(C)C)C(=O)N[C@@H](CCC(N)=O)C(=O)N[C@@H](CO)C(=O)N[C@@H](CC(C)C)C(=O)N[C@H](C(=O)N[C@@H](CCCNC(=N)N)C(=O)N[C@@H](CCSC)C(=O)N[C@@H](CCCCN)C(=O)O)C(C)C)[C@@H](C)CC [Equusin-2] (H-RAYICRKKFLSLRKASIKLQSLVRMK-OH; N-terminus and C-terminus assumed) | > 128 | > 16 | Active | 8 (≈ 25.1 µg/mL) | most potent depolarization effects |  |  |  | 16 (≈ 50.2 µg/mL) |  |  |  |  | 
4 | CC(C)C[C@H](NC(=O)[C@H](CC(C)C)NC(=O)[C@@H](NC(=O)[C@H](CCCNC(=N)N)NC(=O)[C@H](C)NC(=O)[C@H](Cc1ccccc1)NC(=O)[C@H](CCCNC(=N)N)NC(=O)[C@H](CO)NC(=O)[C@H](Cc1c[nH]c2ccccc12)NC(=O)[C@H](CCCNC(=N)N)NC(=O)[C@H](CC(C)C)NC(=O)[C@H](CCCCN)NC(=O)[C@H](CC(C)C)NC(=O)[C@@H](N)Cc1ccccc1)C(C)C)C(=O)O [Equusin-1] (H-FLKLRWSRFARVLL-OH; N-terminus and C-terminus assumed) | > 128 |  | Active |  |  | 1 (≈ 1.81 µg/mL) | 16 (≈ 28.9 µg/mL) |  | 4 (≈ 7.22 µg/mL) | 16 (≈ 28.9 µg/mL) | 1 (≈ 1.81 µg/mL) | 16 (≈ 28.9 µg/mL) | 4 (≈ 7.22 µg/mL) | 
5 | CC[C@H](C)[C@H](NC(=O)[C@H](CCCCN)NC(=O)[C@H](CCCCN)NC(=O)[C@H](Cc1ccccc1)NC(=O)[C@H](Cc1ccccc1)NC(=O)[C@@H](NC(=O)[C@@H](NC(=O)[C@H](CO)NC(=O)[C@H](CCCCN)NC(=O)[C@@H](NC(=O)[C@@H](NC(=O)[C@H](Cc1c[nH]c2ccccc12)NC(=O)[C@H](CCCCN)NC(=O)[C@H](CCCCN)NC(=O)[C@@H](NC(=O)[C@H](CCC(=O)O)NC(=O)[C@H](CCCCN)NC(=O)[C@H](CC(C)C)NC(=O)[C@@H](NC(=O)[C@H](CCCCN)NC(=O)[C@H](CCCNC(=N)N)NC(=O)[C@H](CC(C)C)NC(=O)[C@H](CC(C)C)NC(=O)[C@@H](N)CCCCN)C(C)C)[C@@H](C)O)C(C)C)[C@@H](C)CC)C(C)C)C(C)C)C(=O)N[C@@H](CCCNC(=N)N)C(=O)N[C@@H](CCCCN)C(=O)O [Hesperelin-1] (H-KLLRKVLKETKKWVIKSVVFFKKIRK-OH; N-terminus and C-terminus assumed) | > 128 |  | Active | 4 (≈ 13 µg/mL) |  | 2 (≈ 6.49 µg/mL) |  |  | 8 (≈ 26 µg/mL) |  |  | 8 (≈ 26 µg/mL) | 16 (≈ 51.9 µg/mL) | 
6 | CC[C@H](C)[C@H](NC(=O)[C@H](CCCCN)NC(=O)[C@H](CC(C)C)NC(=O)[C@H](CCC(N)=O)NC(=O)[C@H](Cc1ccccc1)NC(=O)[C@@H](NC(=O)[C@@H](NC(=O)[C@H](Cc1ccccc1)NC(=O)[C@H](CC(C)C)NC(=O)[C@@H](NC(=O)[C@@H](N)CC(C)C)[C@@H](C)O)[C@@H](C)CC)[C@@H](C)CC)C(=O)N[C@@H](CO)C(=O)N[C@@H](CCCCN)C(=O)N[C@@H](CC(C)C)C(=O)O [Paleopropin-1] (H-LTLFIIFQLKISKL-OH; N-terminus and C-terminus assumed) | > 128 | > 4 | Active |  |  |  |  |  |  |  |  |  |  | 16 (≈ 26.8 µg/mL)
7 | CC[C@H](C)[C@H](NC(=O)CNC(=O)[C@H](Cc1c[nH]cn1)NC(=O)[C@H](CC(N)=O)NC(=O)[C@H](CCCCN)NC(=O)[C@H](CCC(N)=O)NC(=O)[C@@H](N)CCCNC(=N)N)C(=O)N[C@@H](Cc1c[nH]cn1)C(=O)N[C@@H](Cc1ccccc1)C(=O)N[C@@H](CCCNC(=N)N)C(=O)N[C@H](C(=O)N[C@@H](CC(C)C)C(=O)N[C@@H](C)C(=O)N[C@@H](CCCCN)C(=O)N[C@@H](C)C(=O)N[C@@H](CC(C)C)C(=O)N[C@@H](CCCNC(=N)N)C(=O)O)C(C)C [Hesperelin-3] (H-RQKNHGIHFRVLAKALR-OH; N-terminus and C-terminus assumed) |  |  | Active |  | most potent depolarization effects |  |  |  |  |  |  |  |  | 
